In one assay the test system is HCT 116 Xenograft Tumors. Nature of the assay: HCT 116 cell line xenograft: DOXIL given 16 hr prior to Compound B-2 CoX (PO), 2 weekly cycles; tumor growth (studies of Tables 4-9). The format is in vivo, nu/nu nude mice. The following applies: Table 5 study; 100 mg/kg Compound B-2 CoX qd×4 alone. The protocol:
(§1) Statistical significance was defined as P<0.05.
Effect of Compound B-2 CoX Schedule in Combination with DOXIL® in HCT 116 Xenograft Tumors: The HCT 116 xenograft tumor model was selected for further examination of the effect of schedule and dose of Compound B-2 CoX in combination with DOXIL®. In this study, the effect of dosing Compound B-2 CoX qd for 2, 3, and 4 days following DOXIL® was examined.
Dose Response of DOXIL® alone and Dose Response of Compound B-2 CoX in Combination with 6 mg/kg DOXIL® in HCT 116 Xenograft Tumors: Additional investigations were conducted to determine the dose response of DOXIL® alone (1.5-6 mg/kg) in the HCT 116 xenograft tumor model. Further, a dose response of Compound B-2 CoX (25-100 mg/kg) in combination with 6 mg/kg DOXIL® was also assessed. Lastly, the efficacy of 1.5 mg/kg DOXIL® in combination with 200 mg/kg Compound B-2 CoX was also examined.
Result of reexamination of Compound B-2 CoX Dose and Schedule in Combination with DOXIL® in an HCT 116 Xenograft Mouse Model.
Examination of the Effect of Compound B-2 CoX Dose in Combination with 3 mg/kg DOXIL® in an HCT 116 Xenograft Tumor Model: A 3 mg/kg DOXIL® dose was examined in combination with a range of doses of Compound B-2 CoX (50-200 mg/kg) to identify the response of HCT 116 xenograft tumors to these combinations. […]

Another assay relates to OVCAR-3 Xenograft Tumors. Nature of the assay: OVCAR-3 cell line xenograft: DOXIL given 16 hr prior to Compound B-2 CoX (PO); tumor growth. The format is in vivo, nu/nu nude mice. Particulars: 100 mg/kg Compound B-2 CoX qd×2 alone.
Text: as §1

Assay [1] relates to pKAP1 and pH2AX levels in MDA-MB-436 and MDA-MB-468 breast cancer cells. Nature of the assay: pKAP1 and pH2AX immunoblot, Compound B-2 and doxorubicin in MDA-MB-436 and MDA-MB-468 cells. In kind it is cell-based, human. Particulars: 500 nM doxorubicin alone; at 4 h, remained elevated to 8 h. The protocol:
(§2) Materials and Methods. The human cancer cell lines A549 (CCL-185), DU4475 (HTB-123), MDA-MB-436 (HTB-130), and MDA-MB-468 (HTB-132) were obtained from American Type Culture Collection (ATCC; Manassas, VA). A 10 mM stock solution of Compound B-1 or Compound B-2 was prepared in DMSO and stored at −20° C. Etoposide and doxorubicin were purchased from Sigma-Aldrich (St. Louis, MO).
(§3) The A549 human lung cancer cell line was purchased from ATCC and was cultured in DMEM supplemented with 10% fetal bovine serum, 1× non-essential amino acids and 1× Penicillin/Streptomycin (complete medium). Cells were maintained at a subconfluent state by passaging every 2-3 days. Human breast cancer cells lines DU4475, MDA-MB-436, and MDA-MB-468 were purchased from ATCC and cultured in DMEM supplemented with 10% fetal bovine serum, 1× Glutamax and Penicillin/Streptomycin. Cells were maintained at a subconfluent state by passaging every 2-3 days.
(§4) Compound B-1 and Compound B-2 used in these experiments were not prepared as a co-crystals.
(§5) Breast cancer cell lines grown in 24-well (Costar, catalog #3526) or 6-well (Costar, catalog #3516) tissue culture plates to 70-80% confluence were pre-incubated with 1 μM Compound B-2 or DMSO for 15 min. Doxorubicin was added to a final concentration of either 100 nM or 500 nM from a 1000× stock prepared in DMSO. Cells were then incubated for the indicated amount of time and harvested for analysis.
Cell Lysis and Western Blot Analysis. […]
To determine that enhancement of DNA damage by concurrent treatment of cells with Compound B-2 and doxorubicin was not specific to DU4475 cells, two additional breast cancer cell lines, MDA-MB-436 and MDA-MB-468, were also pre-incubated with 1 μM Compound B-2 for 15 min, followed by addition of 500 nM doxorubicin. Cells were harvested at various time points following doxorubicin addition and analyzed for levels of pKAP1 and pH2AX by immunoblotting.

Assay [2] has as its system pKAP1 and pH2AX levels in DU4475 breast cancer cells. Nature of the assay: pKAP1 and pH2AX immunoblot, Compound B-2 and doxorubicin in DU4475 breast cancer cells. In kind it is cell-based, human. Particulars: doxorubicin alone, 100 nM or 500 nM; from 4-8 h, elevated up to 24 h at 500 nM only. The protocol: as §2, §3, §4, §5
Cell Lysis and Western Blot Analysis. Cells treated with Compound B-1 or Compound B-2 in combination with chemotherapeutic agents were washed once with ice-cold PBS and then dissolved in 150 μL/well 2×SDS-PAGE sample buffer, transferred to microfuge tubes, and heated in a 105° C. heat block for 5 min for immunoblotting. A 15-μL aliquot of each SDS-PAGE sample was loaded onto 12-lane 4 20% Tris-Glycine gels and the gels were run at 125v constant voltage until the dye front reached the bottom (approximately 2 h). Following electrophoresis, separated proteins in the gels were transferred to a nitrocellulose membrane. Transfer was carried out for 2 h at 1.5 A constant current in a cold room using a Hoefer transfer apparatus (Model TE42 or TE62, Hoefer Inc, Holliston, MA) according to manufacturer's instructions. Following transfer, nitrocellulose membranes were incubated with blocking buffer for 1 h at room temperature. The nitrocellulose membranes were cut and the bottom halves were incubated overnight with 2 primary antibodies, anti-pH2AX (1/1000) and anti-total H2AX (1/1000). After washing, the appropriate fluorescently labeled secondary antibodies were added to the membranes and then imaged with pH2AX on the 800 (green) channel and total H2AX on the 700 (red) channel. The top halves of the membranes were probed sequentially for pKAP1 (1/1000) on the 700 (red) channel and then probed for total KAP1 (1/1000) and GAPDH (1/2500) on the 800 (green) channel. Image acquisition was conducted using an Odyssey fluorescent imaging system (Li-Cor Biosciences; Lincoln, NE).
Compound B-2 and doxorubicin combination in breast cancer cell lines in culture. To examine the effect of DNA-PK inhibition on pKAP1 and pH2AX in vitro, DU4475 breast cancer cells were pre-incubated with 1 μM Compound B-2 for 15 min, followed by addition of 100 nM or 500 nM doxorubicin. Cells were harvested at various time points following doxorubicin addition and analyzed for levels of pKAP1 and pH2AX by immunoblotting.
On the technique in general: A western blot detects proteins with antibodies after separation by electrophoresis.

Each structure is given as a SMILES string.

Consider `[2H]c1nc(C)nc([2H])c1-c1cc(NC[C@@H](C)c2cccc3c(C(=O)NC)ccnc23)ncn1` [Compound B-2 CoX], for which the “% T/C (Day 19)” value in the assay with HCT 116 Xenograft Tumors came out at 106%. Further, in the assay on OVCAR-3 Xenograft Tumors, the “% T/C (Day 43)” value was 83.2%.

Consider `COc1cccc2c1C(=O)c1c(O)c3c(c(O)c1C2=O)C[C@@](O)(C(=O)CO)C[C@@H]3O[C@H]1C[C@H](N)[C@H](O)[C@H](C)O1` [Doxorubicin, reference compound], for which the “pKAP1 and pH2AX level” value in assay [1] and in assay [2] was “increased level” each time.
